Test results from US9452983B2, “Method for refining quinolinic acid” (CJ CHEILJEDANG CORP., priority 2013, dated 2016).

Test: Evaluation of solubility of quinolinic acid with respect to pH
Assay type: physicochemical
Settings: room temperature (about 23° C.), pH controlled using 28%-ammonia water and 98% sulfuric acid, FIG. 1
Description: Evaluation of solubility of Quinolinic Acid with Respect to pH
Solubility of quinolinic acid in water at room temperature (about 23° C.) with respect to pH was evaluated using a pure quinolinic acid reagent (Sigma-Aldrich Prod. No. P63204), wherein the pH was controlled using a 28%-ammonia water and 98% sulfuric acid).

SMILES: O=C(O)c1cccnc1C(=O)O [quinolinic acid]
- Solubility of quinolinic acid in water with respect to pH: the lower the pH, the lower the solubility
